Experimental data reported in PMC9127739, “Hololectin Interdomain Linker Determines Asparaginyl Endopeptidase-Mediated Maturation of Antifungal Hevein-Like Peptides in Oats” (Frontiers in Plant Science, 2022).
Where a SMILES comes first, the peptide text is derived from it. Bridges are numbered along the chain shown (N, C = ends).

How the values were obtained:
[1] = test system: trypsin; experiment: Peptide stability assay, trypsin (endopeptidase); assay type: in vitro ADME; details: recommended buffer, RP-HPLC, n = 3
Description: (§1) Purified avenatides aV1 and S-alkylated aV1 were incubated under the stated conditions and recommended buffer solution. At each time interval, aliquots of samples were taken and RP-UPLC was performed in triplicate.

[2] = test system: carboxypeptidase A; experiment: Exoproteolytic enzyme stability assay, carboxypeptidase A; assay type: in vitro ADME; details: carboxypeptidase A (isolated exopeptidase); 200 μM peptide, 100 nM carboxypeptidase A, 50 mM Tris-HCl, 100 mM sodium chloride, 37°C, 4 h (time-points 0 and 6 h); quenched with 1 M HCl; RP-UPLC; n = 3; read-out: Peptide retained after carboxypeptidase A treatment
Description: as §1
Purified avenatide aV1 (200 μM) were added to 50 mM Tris-HCl, 100 mM sodium chloride with 100 nM carboxypeptidase A or 20 mM tricine and 0.05% bovine serum albumin (pH 8.0) with 20 U/mL aminopeptidase I. The mixture was incubated in a 37°C water bath for 4 h. At each time-point ([…]), 20 μL of the treated sample was aliquoted and quenched with 5 μL 1 M hydrochloric acid. RP-UPLC was performed to determine the amounts of avenatide aV1 present before and after treatment.

[3] = test system: Curvularia lunata (CICC 40301); experiment: Anti-fungal microbroth dilution assay; assay type: cell-based; details: 1 × 10^5 cells/mL spores in half-strength potato dextrose broth, 25°C, 24 h, crystal violet, absorbance 570 nm, read-out: IC50 against C. lunata
Description: (§2) Four phyto-pathogenic fungal strains from the China Center of Industrial Culture Collection (Beijing, China) were used to examine the anti-fungal activity of avenatide aV1: Alternaria alternata (CICC 2465), Curvularia lunata (CICC 40301), Fusarium oxysporum (CICC 2532), and Rhizoctonia solani (CICC 40259). Fungal strains were grown on potato dextrose agar plates at 25°C.
(§3) The half maximal inhibitory concentration levels (IC50) of avenatide aV1 were determined using a microbroth dilution assay ([Loo et al., 2021b]). Fungal spores were harvested from a 4-day old, actively growing fungal plate and suspended in half-strength potato dextrose broth. In the 96-well microplate, 1 × 10^5 cells/mL of spore suspension was mixed with peptides at varying concentrations and incubated at 25°C for 24 h. The cells were then fixed with 100% methanol for 15 min. Staining was done for 45 min with crystal violet dye. MilliQ water was used to remove excess dye. Elution was performed using 1:1 (v/v) ethanol/0.1 N HCl. Absorbance was measured at 570 nm.

[4] = test system: Fusarium oxysporum (CICC 2532); experiment: Anti-fungal microbroth dilution assay; assay type: cell-based; details: 1 × 10^5 cells/mL spores in half-strength potato dextrose broth, 25°C, 24 h, crystal violet, absorbance 570 nm, read-out: IC50 against F. oxysporum
Description: as §2, §3

CC(C)C[C@@H]1NC(=O)CNC(=O)[C@@H]2CSSC[C@@H]3NC(=O)[C@@H]4CCCN4C(=O)[C@H](CO)NC(=O)[C@H](CO)NC(=O)[C@H](CO)NC(=O)[C@H](CO)NC(=O)[C@@H](NC(=O)[C@H](C)N)CSSC[C@H](NC(=O)[C@H](CSSC[C@@H](C(=O)NCC(=O)N[C@@H](CO)C(=O)NCC(=O)N[C@H]4CSSC[C@@H](C(=O)N[C@H](C(=O)NCC(=O)N[C@@H](C)C(=O)O)[C@@H](C)O)NC(=O)[C@@H]5CCCN5C(=O)CNC(=O)[C@H](CO)NC(=O)[C@H](CCC(N)=O)NC4=O)NC(=O)[C@H](Cc4ccc(O)cc4)NC(=O)[C@H](CC(=O)O)NC(=O)CNC(=O)CNC1=O)NC(=O)[C@H](CCC(N)=O)NC(=O)[C@H](CC(N)=O)NC(=O)CNC(=O)[C@@H]1CCCN1C3=O)C(=O)N[C@@H](CO)C(=O)N[C@@H](CCCCN)C(=O)N[C@@H](Cc1c[nH]c3ccccc13)C(=O)NCC(=O)N[C@@H](Cc1ccc(O)cc1)C(=O)N2 [avenatide aV1] (H-ACSSSSPCPGNQCCSKWGYCGLGGDYCGSGCQSGPCTGA-OH; disulfide 2-14, 8-20, 13-27, 31-36)
Peptide retained after trypsin treatment [1]: > 80%
remaining at 4 h, 200 μM [2]: > 80%
IC50 [3]: 74 µM
IC50 [4]: 53 µM
